Measurements reported in publication PMC6766518 (Physiological Reports, 2019).
Like-named read-outs stand apart in the source and are kept apart here.

Assays:
patients = conditions: cited from earlier work
[1] = tested on: female C57BL/6J mice (serum Ca^2+ and Pi); assay: Serum Ca2+ and Pi, colorimetric; conditions: 80 µg/kg/day SC, 30 days; 24 h after last injection; vs vehicle; N = 5 mice/group
Procedure: All animal procedures were reviewed and approved by the Institutional Animal Care and Use Committee at James J. Peters Veterans Affairs Medical Center. […] No peptide injection was performed on the day of animal sacrifice.
Blood was collected and serum was separated as described above. Serum Ca^2+ and Pi concentrations were measured using colorimetric Ca^2+ and Pi assay kits (Cat numbers K380 and K410, respectively) as indicated by the manufacturer (BioVision, Milpitas, CA).
For in vivo studies, five mice/group were used. […] Statistical analyses were performed using GraphPad Prism and Microsoft excel. […] The results are presented as the means ± SD. […] For carrying out multiple group comparisons (all in vivo experiments), one‐way analysis of variance (ANOVA) was performed. When ANOVA indicated unequal means, Tukey's honestly significant difference (HSD) posthoc test was performed to determine which means were different to the level of significance. Statistical significance was considered when P value was less than 0.05 (P < 0.05).
Sera were collected at sacrifice (24 h after last injection) and levels of Ca^2+ and Pi were measured using specific colorimetric assays. (A) Serum Ca^2+ levels. (B) Serum Pi levels. The statistical designation directly listed on the top of each bar indicates the significance level in comparison to vehicle. […] The data in all graph are expressed as the means ± SD. […]

[2] = biological target: T1, PTHR1 (MC3T3‐E1 osteoblast cell line) (Mus musculus, UniProt P41593); assay: Intracellular cAMP generation in MC3T3-E1 osteoblast cells; format: cell-based
T1 construct: host or cells: MC3T3-E1 subclone 4
T1 sequence (P41593 27-591): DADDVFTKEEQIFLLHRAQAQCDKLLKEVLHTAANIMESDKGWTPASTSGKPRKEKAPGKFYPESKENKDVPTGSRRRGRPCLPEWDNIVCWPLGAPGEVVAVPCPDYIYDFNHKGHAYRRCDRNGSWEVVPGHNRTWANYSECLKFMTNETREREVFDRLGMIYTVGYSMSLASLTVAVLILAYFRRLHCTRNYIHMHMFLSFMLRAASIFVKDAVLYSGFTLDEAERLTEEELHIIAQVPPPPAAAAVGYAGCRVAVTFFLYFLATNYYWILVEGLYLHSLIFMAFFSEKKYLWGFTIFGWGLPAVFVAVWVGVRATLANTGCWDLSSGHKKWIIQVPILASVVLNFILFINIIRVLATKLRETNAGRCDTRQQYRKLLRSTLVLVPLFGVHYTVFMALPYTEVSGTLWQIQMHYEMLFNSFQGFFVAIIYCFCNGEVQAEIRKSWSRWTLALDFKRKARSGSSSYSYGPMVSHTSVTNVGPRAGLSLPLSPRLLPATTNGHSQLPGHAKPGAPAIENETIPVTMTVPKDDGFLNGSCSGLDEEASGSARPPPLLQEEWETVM

PTHR1 = biological target: T2, PTHR1 (Homo sapiens, UniProt Q03431); assay: PathHunter eXpress PTHR1 CHO-K1 β-arrestin GPCR assay (β-arrestin recruitment); format: cell-based; conditions: CHO‐K1 cells; abaloparatide vs teriparatide; P = 0.02
T2 sequence (Q03431 27-593): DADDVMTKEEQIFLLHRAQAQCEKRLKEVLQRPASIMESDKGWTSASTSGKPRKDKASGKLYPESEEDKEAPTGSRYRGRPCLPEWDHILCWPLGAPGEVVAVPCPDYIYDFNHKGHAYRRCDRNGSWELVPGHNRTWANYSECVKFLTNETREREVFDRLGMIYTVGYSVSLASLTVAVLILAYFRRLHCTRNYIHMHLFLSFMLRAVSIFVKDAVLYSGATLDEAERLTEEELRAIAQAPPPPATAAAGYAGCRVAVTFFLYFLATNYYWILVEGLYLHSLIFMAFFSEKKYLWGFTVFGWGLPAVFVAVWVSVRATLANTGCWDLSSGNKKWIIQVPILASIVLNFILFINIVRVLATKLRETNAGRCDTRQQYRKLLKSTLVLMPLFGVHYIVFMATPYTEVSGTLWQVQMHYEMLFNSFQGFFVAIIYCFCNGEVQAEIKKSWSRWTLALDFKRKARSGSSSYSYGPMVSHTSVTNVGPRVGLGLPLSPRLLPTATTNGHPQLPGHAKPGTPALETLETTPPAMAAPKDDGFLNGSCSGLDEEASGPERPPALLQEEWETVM

[3] = tested on: patients with osteoporosis; conditions: ref Neer et al. 2001, cited from earlier work
Text: Human life expectancy has increased, thanks to the advances in medical research and the subsequent improvement in health care. As a result, there is a growing demand for better management of the common illnesses of the increasing elderly population. One of these illnesses, osteoporosis, is a common world‐wide bone disorder and a major public health threat for 44 million Americans, 68% of them being women. Osteoporosis accounts for an estimated 1.5 million fractures in the US every year costing over 14 billion dollars. Furthermore, the National Osteoporosis Foundation estimates that 50% of wome ...

RANKL gene expression = conditions: in vivo and in vitro; ref Ricarte et al. 2018; cited from earlier work
Text: PTHR1 is a member of subclass B seven transmembrane spanning GTP‐binding protein (G‐protein) coupled receptors (GPCR) that activates multiple G‐proteins, primarily the Gs but also Gq/11, Gi, and G12/13 G‐proteins. As a result, PTHR1 activation stimulates multiple downstream pathways and events such as Gs/adenylate cyclase/cAMP/protein kinase A, Gq11/phospholipase C/diacylglycerol‐inositol‐triphosphate‐Ca/protein kinase C, phospholipase D, and Src/β‐arrestin/MAPK pathways and PTHR1 phosphorylation and internalization (Abou‐Samra et al. 1992; Sneddon et al. 2000; Tawfeek et al. 2001; Tawfeek et ...

Which results are given for `CC[C@H](C)[C@H](NC(=O)[C@H](CCC(=O)O)NC(=O)[C@H](CO)NC(=O)[C@@H](NC(=O)[C@@H](N)CO)C(C)C)C(=O)N[C@@H](CCC(N)=O)C(=O)N[C@@H](CC(C)C)C(=O)N[C@@H](CCSC)C(=O)N[C@@H](Cc1cnc[nH]1)C(=O)N[C@@H](CC(N)=O)C(=O)N[C@@H](CC(C)C)C(=O)NCC(=O)N[C@@H](CCCCN)C(=O)N[C@@H](Cc1cnc[nH]1)C(=O)N[C@@H](CC(C)C)C(=O)N[C@@H](CC(N)=O)C(=O)N[C@@H](CO)C(=O)N[C@@H](CCSC)C(=O)N[C@@H](CCC(=O)O)C(=O)N[C@@H](CCCN=C(N)N)C(=O)N[C@H](C(=O)N[C@@H](CCC(=O)O)C(=O)N[C@@H](Cc1c[nH]c2ccccc12)C(=O)N[C@@H](CC(C)C)C(=O)N[C@@H](CCCN=C(N)N)C(=O)N[C@@H](CCCCN)C(=O)N[C@@H](CCCCN)C(=O)N[C@@H](CC(C)C)C(=O)N[C@@H](CCC(N)=O)C(=O)N[C@@H](CC(=O)O)C(=O)N[C@H](C(=O)N[C@@H](Cc1cnc[nH]1)C(=O)N[C@@H](CC(N)=O)C(=O)N[C@@H](Cc1ccccc1)C(=O)O)C(C)C)C(C)C` [teriparatide]?
Patients with hypercalcemia (patients; transient and infrequent event, ref Miller et al. 2018): 6.4%; Elevation in serum Pi [1]: 50%

With `CC[C@H](C)[C@H](NC(=O)[C@H](CO)NC(=O)[C@H](CCCCN)NC(=O)CNC(=O)[C@H](CCCCN)NC(=O)[C@H](CC(=O)O)NC(=O)[C@H](Cc1cnc[nH]1)NC(=O)[C@H](CC(C)C)NC(=O)[C@H](CC(C)C)NC(=O)[C@H](CCC(N)=O)NC(=O)[C@H](Cc1cnc[nH]1)NC(=O)[C@H](CCC(=O)O)NC(=O)[C@H](CO)NC(=O)[C@@H](NC(=O)[C@H](C)N)C(C)C)C(=O)N[C@@H](CCC(N)=O)C(=O)N[C@@H](CC(=O)O)C(=O)N[C@@H](CC(C)C)C(=O)N[C@@H](CCCNC(=N)N)C(=O)N[C@@H](CCCNC(=N)N)C(=O)N[C@@H](CCCNC(=N)N)C(=O)N[C@@H](CCC(=O)O)C(=O)N[C@@H](CC(C)C)C(=O)N[C@@H](CC(C)C)C(=O)N[C@@H](CCC(=O)O)C(=O)N[C@@H](CCCCN)C(=O)N[C@@H](CC(C)C)C(=O)N[C@@H](CC(C)C)C(=O)NC(C)(C)C(=O)N[C@@H](CCCCN)C(=O)N[C@@H](CC(C)C)C(=O)N[C@@H](Cc1cnc[nH]1)C(=O)N[C@H](C(=O)N[C@@H](C)C(N)=O)[C@@H](C)O` [abaloparatide] as the compound, how does the EC50 ([2]; 0.01–100 nmol/L, 40 min at 37°C, 0.5 mmol/L IBMX, cAMP competitive ELISA, mean ± SD, three independent experiments, p = 0.02 between analogs, read-out: EC50 for cAMP formation) read?
Its EC50 is 0.3 ± 0.03 nM.

And the “Decrease in EC50 value for cAMP formation compared to teriparatide” value ([2]; abaloparatide vs teriparatide, p = 0.02)?
The value was 2.3 fold.

What about the “EC50 for β‐arrestin recruitment lower than that of teriparatide” value (PTHR1) of the same compound?
Its value is 1.6 fold.

What about the Patients with hypercalcemia (patients; human, in vivo) of the same compound?
The Patients with hypercalcemia was 3.4%.

For “PTH: PTH as administered in cited studies; context points to the amino‐terminal fragment PTH1‐34 (SVSEIQLMHNLGKHLNSMERVEWLRKKLQDVHNF; Parathyroid hormone; UniProt P01270 32-65, looked up, fragment)”, which “Increase in BMD in spine and femur versus bisphosphonates” value ([3]; men and women with osteoporosis) is on record?
The value was “more efficiently than treatment with bisphosphonates”.

What about the “Decrease in risk of vertebral and nonvertebral fractures” value [3] of the same compound?
The value was “more than 50%”.

What about the RANKL gene expression (RANKL gene expression) of the same compound?
The RANKL gene expression was “larger RANKL gene expression in vivo and in vitro”.
